Results from PMC10724293, “New ruthenium-xanthoxylin complex eliminates colorectal cancer stem cells by targeting the heat shock protein 90 chaperone” (Cell Death & Disease, 2023).
Several values for one entry are separate records, joined by “and”; a condition that tells them apart may be missing. Equal entries are not always repeated.

Tests used:
[1] = test system: HCT116 cells; test: qPCR array of human cancer drug target genes; assay type: cell-based; design: key to RQ, gene BCL2 / RQ, gene IGF1R / RQ, gene KDR / RQ, gene EGFR / RQ, gene CTSB / RQ, gene RHOA / RQ, gene ESR1 / RQ, gene MDM2 / RQ, gene MDM4 / RQ, gene TOP2A / RQ, gene TOP2B / RQ, gene ATF2 / RQ, gene NFKB1 / RQ, gene TP53 / RQ, gene AURKC / RQ, gene CDC25A / RQ, gene CDK1 / RQ, gene CDK2 / RQ, gene CDK5 / RQ, gene CDK8 / RQ, gene NTN3 / RQ, gene HRAS / RQ, gene KRAS: 2^−ΔΔCT relative quantification vs DMSO control (calibrator = 1); conditions: 10 µM, 12 h; CTL = 1.0
Experimental: Total RNA was isolated using the RNeasy Plus Mini Kit (Qiagen; Hilden, Germany) according to the manufacturer’s instructions. The RNA was tested for purity and quantified using a NanoDrop® 1000 spectrophotometer (Thermo Fisher Scientific, Waltham, Massachusetts, USA). The Superscript VILOTM Kit was used for RNA reverse transcription (Invitrogen Corporation; Waltham, MA, USA). TaqMan® array human cancer drug targets 96-well plate, fast (ID RPRWENH, Applied BiosystemsTM, Foster City, CA, USA) was used for gene expression quantification by qPCR. The reactions were carried out in an ABI ViiA7 system (Applied BiosystemsTM).
The cycle conditions were 2 min at 50 °C, 10 min at 95 °C, and 40 cycles of 15 s at 95 °C and 1 min at 60 °C. All experiments were carried out in DNase/RNase-free environments. The 2^−ΔΔCT method was used to calculate the relative quantification (RQ) of mRNA expression using Gene Expression SuiteTM Software (Applied BiosystemsTM), and cells treated with the negative control (0.2% DMSO) served as a calibrator. The RQs of the reference genes HPRT1, TFRC and YWHAZ were used to normalize the reactions.

[2] = test system: HCT116 cells; test: Trypan blue exclusion assay; assay type: cell-based, human; conditions: 2.5, 5 and 10 μM; 24, 48 and 72 h
Experimental: The trypan blue exclusion assay was used to quantify the number of viable cells. Briefly, 90 μl of the cell suspension plus 10 μl of trypan blue (0.4%) were mixed, and an aliquot was analyzed in a hemocytometer. The number of viable (unstained cells) and nonviable (trypan blue-stained cells) cells was counted using a light microscope.

[3] = test system: HCT116 cells; test: CRC experimental lung metastasis xenograft model; assay type: in vivo, C. B-17 SCID mice; conditions: 2 mg/kg i.p. every other day for 4 weeks; control 5.0 ± 0.5
Experimental: HCT116 cells (2 × 10^6 cells/100 μl) were injected into the tail vein of each mouse. The animals were then treated intraperitoneally (200 μl/animal) every other day for 4 weeks. […] The animals were euthanized with an anesthetic overdose (thiopental, 100 mg/kg) 1 day after treatment ended, and their lungs were excised and fixed in 4% formaldehyde. The number of lung macrometastases per animal was counted and processed for histological analysis.

[4] = test system: HCT116 cells; test: Cell cycle distribution and internucleosomal DNA fragmentation by flow cytometry; assay type: cell-based, human
Experimental: For quantification of internucleosomal DNA fragmentation and cell cycle distribution, the cells were stained with PI using a solution containing 0.1% Triton X-100, 2 µg/ml PI, 0.1% sodium citrate, and 100 µg/ml RNAse (all from Sigma-Aldrich) and incubated in the dark for 15 min at room temperature. Finally, cell fluorescence was measured using flow cytometry.
For all flow cytometry analyses, cell fluorescence was measured with a BD LSRFortessa cytometer and analyzed by BD FACSDiva Software (BD Biosciences) and FlowJo Software 10 (FlowJo LLC; Ashland, OR, USA). At least 10,000 events were evaluated per sample for intracellular staining, and at least 30,000 events were acquired per sample for cell surface protein staining. FSC-A versus FCS-H and SCC-A versus SCC-H were used to remove the doublets. The analysis excluded cellular debris.

cis-[Ru(phen)2(xant)](PF6) [RXC]
RQ, gene ABCC1 [1]: 0.777 | RQ, gene AKT1 [1]: 0.624 | RQ, gene AKT2 [1]: 0.896 | RQ, gene ATF2 [1]: 0.856 | RQ, gene AURKA [1]: 0.343 | RQ, gene AURKB [1]: 0.562 | RQ, gene AURKC [1]: 0.498 | RQ, gene BCL2 [1]: 0.944 | RQ, gene BIRC5 [1]: 0.499 | RQ, gene CDC25A [1]: 1.174 | RQ, gene CDK1 [1]: 1.021 | RQ, gene CDK2 [1]: 1.057 | RQ, gene CDK4 [1]: 1.065 | RQ, gene CDK5 [1]: 0.446 | RQ, gene CDK7 [1]: 1.621 | RQ, gene CDK8 [1]: 0.943 | RQ, gene CDK9 [1]: 0.986 | RQ, gene CTSB [1]: 1.307 | RQ, gene CTSD [1]: 0.826 | RQ, gene CTSL [1]: 1.073 | RQ, gene CTSS [1]: 0.500 | RQ, gene EGFR [1]: 1.135 | RQ, gene ERBB2 [1]: 0.312 | RQ, gene ERBB3 [1]: 0.814 | RQ, gene ESR1 [1]: 1.523 | RQ, gene ESR2 [1]: 1.673 | RQ, gene FLT4 [1]: 3.841 | RQ, gene GRB2 [1]: 1.220 | RQ, gene GSTP1 [1]: 0.609 | RQ, gene HDAC1 [1]: 0.509 | RQ, gene HDAC2 [1]: 0.509 | RQ, gene HDAC3 [1]: 0.879 | RQ, gene HDAC4 [1]: 1.233 | RQ, gene HDAC6 [1]: 0.969 | RQ, gene HDAC7 [1]: 0.975 | RQ, gene HDAC8 [1]: 0.826 | RQ, gene HDAC11 [1]: 1.433 | RQ, gene HIF1A [1]: 0.663 | RQ, gene HRAS [1]: 1.867 | RQ, gene HSP90AA1 [1]: 0.353 and 0.35 | RQ, gene HSP90B1 [1]: 0.285 and 0.28 | RQ, gene IGF1R [1]: 1.146 | RQ, gene IRF5 [1]: 1.472 | RQ, gene KDR [1]: 0.896 | RQ, gene KRAS [1]: 2.847 | RQ, gene MDM2 [1]: 2.327 | RQ, gene MDM4 [1]: 1.960 | RQ, gene MTOR [1]: 0.595 | RQ, gene NFKB1 [1]: 1.055 | RQ, gene NRAS [1]: 0.893 | RQ, gene NTN3 [1]: 2.364 | RQ, gene PARP1 [1]: 0.485 | RQ, gene PARP4 [1]: 0.791 | RQ, gene PDGFRB [1]: 2.249 | RQ, gene PIK3C2A [1]: 1.177 | RQ, gene PIK3C3 [1]: 1.485 | RQ, gene PIK3CA [1]: 0.956 | RQ, gene PLK1 [1]: 0.890 | RQ, gene PLK2 [1]: 1.023 | RQ, gene PLK3 [1]: 1.749 | RQ, gene PLK4 [1]: 1.081 | RQ, gene PRKCA [1]: 0.567 | RQ, gene PRKCB [1]: 0.993 | RQ, gene PRKCD [1]: 1.557 | RQ, gene PRKCE [1]: 1.461 | RQ, gene PTGS2 [1]: 1.461 | RQ, gene RHOA [1]: 0.937 | RQ, gene RHOB [1]: 1.762 | RQ, gene TERT [1]: 0.866 | RQ, gene TNKS [1]: 2.951 | RQ, gene TOP2A [1]: 0.769 | RQ, gene TOP2B [1]: 1.055 | RQ, gene TP53 [1]: 1.058 | RQ, gene TXN [1]: 1.184 | RQ, gene TXNRD1 [1]: 3.038 | number of viable cells [2]: reduced the number of viable cells | mean number of pulmonary metastatic nodules [3]: 1.3 ± 0.4 | DNA fragmentation (sub-G0/G1) ([4]; 2.5 μM, 48 h, control […]): 7.1% | DNA fragmentation (sub-G0/G1) ([4]; 2.5 μM, 72 h, control 2.0%): 18.8% | DNA fragmentation (sub-G0/G1) ([4]; 5 μM, 48 h, control […]): 9.3% | DNA fragmentation (sub-G0/G1) ([4]; 5 μM, 72 h, control 2.0%): 22.4% | cell cycle effect ([4]; 10 μM, 24 h): cell cycle arrest in S-phase | DNA fragmentation (sub-G0/G1) ([4]; 10 μM, 48 h, control […]): 9.6% | DNA fragmentation (sub-G0/G1) ([4]; 10 μM, 72 h, control 2.0%): 34.3%
